Literature values, collected in patent US8268828B2, “Inhibitors of the chemokine receptor CxCR3” (Sanofi, priority 2008, dated 2012).

How the values were obtained:
[1] = tested on: metastatic breast cancer
[2] = tested on: Collagen Induced Arthritis (CIA); conditions: CIA mice

In the case of `CCOc1ccc(-n2c([C@@H](C)N(Cc3cccnc3)C(=O)Cc3ccc(OC(F)(F)F)cc3)nc3ncccc3c2=O)cc1` [AMG-487], the “reduction of the number of metastases” value ([1]; mouse model of metastatic breast cancer) is given as 60% and the “direct effect on proliferation” value ([1]; tumor cells) is given as “no direct effect”.
In the case of `Cc1ccc(-c2ccc3c(c2)C=C(C(=O)Nc2ccc(C[N+](C)(C)C4CCOCC4)cc2)CCC3)cc1.[Cl-]` [TAK-779], the “classical picture of inflammation (swollen red joints in limbs)” value [2] is listed as “ablated” and the “leukocytic infiltration of joints” value ([2]; histologic evaluation) is listed as “blocked”.
